Measured values published in ChEMBL document CHEMBL5053556, “Design, Synthesis, and Biological Evaluation of a Novel Series of Teriflunomide Derivatives as Potent Human Dihydroorotate Dehydrogenase Inhibitors for Malignancy Treatment” (J Med Chem, 2021).
≈ marks a conversion by molar mass, not a printed value.

Experiments:
[1] = target: T1, Dihydroorotate dehydrogenase (quinone), mitochondrial (Homo sapiens, UniProt Q02127)
Description: Inhibition of human DHODH using dihydroorotate substrate preincubated for 30 mins followed by substrate addition by DCIP based microplate reader analysis

[2] = target: T1, Dihydroorotate dehydrogenase (quinone), mitochondrial; details: dose 100.0 nM, time 30.0 min
Raji = experiment: Antiproliferative activity against human Raji cells assessed as cell growth inhibition incubated for 96 hrs by MTT assay; assay type: functional, cell-based
L02 = experiment: cells; assay type: ADME, cell-based; details: Homo sapiens, L02, 96 h
Description: Cytotoxicity against human L02 cells assessed as cell growth inhibition incubated for 96 hrs by MTT assay

physchem = details: aqueous
Description: Aqueous solubility of compound by UPLC method

in vitro = details: human, L02 cells and Raji cells
Description: Selectivity index, ratio of IC50 for human L02 cells to IC50 for human Raji cells

HCT-116 = experiment: Antiproliferative activity against human HCT-116 cells assessed as cell growth inhibition incubated for 96 hrs by MTT assay; assay type: functional, cell-based; details: HCT-116, 96 h
A549 = experiment: Antiproliferative activity against human A549 cells assessed as cell growth inhibition incubated for 96 hrs by MTT assay; assay type: functional, cell-based; details: A549, 96 h
K562 = experiment: Antiproliferative activity against human K562 cells assessed as cell growth inhibition incubated for 96 hrs by MTT assay; assay type: functional, cell-based; details: K562, 96 h
A-375 = experiment: Antiproliferative activity against human A-375 cells assessed as cell growth inhibition incubated for 96 hrs by MTT assay; assay type: functional, cell-based; details: A-375, 96 h
SK-MEL-28 = experiment: Antiproliferative activity against human SK-MEL-28 cells assessed as cell growth inhibition incubated for 96 hrs by MTT assay; assay type: functional, cell-based; details: SK-MEL-28, 96 h

T1 sequence (Q02127 whole entry): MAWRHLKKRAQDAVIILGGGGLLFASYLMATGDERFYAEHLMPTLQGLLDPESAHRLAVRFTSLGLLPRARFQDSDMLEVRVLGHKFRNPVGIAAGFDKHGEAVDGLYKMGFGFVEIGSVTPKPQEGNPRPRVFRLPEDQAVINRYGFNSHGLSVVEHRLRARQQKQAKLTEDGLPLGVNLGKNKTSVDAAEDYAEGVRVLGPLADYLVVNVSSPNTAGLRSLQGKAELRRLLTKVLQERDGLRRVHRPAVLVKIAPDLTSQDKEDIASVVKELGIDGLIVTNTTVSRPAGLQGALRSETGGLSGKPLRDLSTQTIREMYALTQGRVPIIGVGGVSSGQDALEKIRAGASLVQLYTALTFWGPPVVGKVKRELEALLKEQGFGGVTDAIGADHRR

Compound	IC50 [1] [nM]	inhibition [2] [%]	other results
C/C(O)=C(\C#N)C(=O)Nc1cc(OC(C)C)c(C(=O)Nc2ccccc2Cl)cc1F	47.2	62.7	
CCOc1cc(NC(=O)/C(C#N)=C(/C)O)c(F)cc1C(=O)Nc1c(F)cccc1Cl	44.1	63.8	
C/C(O)=C(\C#N)C(=O)Nc1cc(O[C@@H](C)C(F)(F)F)c(C(=O)Nc2c(Cl)cccc2Br)cc1F	6.2	94.4	IC50 (Raji): 32.2 nM; IC50 (L02): 506 nM; solubility (physchem): 2900 µg/mL (≈ 5.14 mM); selectivity ratio (in vitro): 15.8
C/C(O)=C(\C#N)C(=O)Nc1cc(OC(C)C)c(C(=O)Nc2ccc(F)cc2)cc1F		7.5	
C/C(O)=C(\C#N)C(=O)Nc1cc(OC(C)C)c(C(=O)Nc2ccc(F)c(Cl)c2)cc1F		4.9	
C/C(O)=C(\C#N)C(=O)Nc1cc(OC(C)C)c(C(=O)Nc2cccc(F)c2)cc1F		22.1	
C/C(O)=C(\C#N)C(=O)Nc1ccc(C(=O)Nc2c(F)cccc2F)c(OC(C)C)c1		53.4	
C/C(O)=C(\C#N)C(=O)Nc1cc(OC(C)C)c(C(=O)Nc2ccccc2Br)cc1F	41.5	68.5	
COc1cccc(NC(=O)c2cc(F)c(NC(=O)/C(C#N)=C(/C)O)cc2OC(C)C)c1		21.3	
C/C(O)=C(\C#N)C(=O)Nc1cc(O[C@@H](C)C(F)(F)F)c(C(=O)Nc2c(Cl)cccc2Cl)cc1F	5.7	96.4	IC50 (Raji): 32.1 nM; IC50 (L02): 452 nM; solubility (physchem): 2400 µg/mL (≈ 4.61 mM); selectivity ratio (in vitro): 14.1
C/C(O)=C(\C#N)C(=O)Nc1cc(OC(C)C)c(C(=O)Nc2c(F)cccc2Cl)cc1F	22.4	70.7	IC50 (HCT-116): 7300 nM; IC50 (A549): 900 nM; IC50 (Raji): 300 nM; IC50 (K562): 2300 nM; IC50 (A-375): 1100 nM; IC50 (SK-MEL-28): 300 nM; solubility (physchem): 465 µg/mL (≈ 1.03 mM)
C/C(O)=C(\C#N)C(=O)Nc1cc(OC(C)C)c(C(=O)Nc2c(F)cccc2F)cc1F	36.2	70.5	
CCOc1cc(NC(=O)/C(C#N)=C(/C)O)c(F)cc1C(=O)Nc1c(F)cccc1F		40.2	
C/C(O)=C(\C#N)C(=O)Nc1cc(OC(C)C)c(C(=O)Nc2c(F)cccc2Br)cc1F	18.2	85.4	IC50 (Raji): 347 nM; IC50 (L02): 2100 nM; selectivity ratio (in vitro): 6.1
